Reference: patent US10154667B2, “Broadleaf crop control with 6-arylpicoline carboxylic acids, 2-arylpyrimidine carboxylic acids, or salts or esters thereof” (Dow AgroSciences LLC, priority 2013, dated 2018)
Like-named read-outs stand apart in the source and are kept apart here.

How the values were obtained:
Type in all cases: in vivo, Glycine max
[1] = test system: ROUNDUP READY soybeans (GLXMA); assay: Field evaluation with various herbicides, 46 days after treatment; conditions: 46 Days After Treatment
Text: (§1) The average percent visual control of ROUNDUP READY® soybeans (GLXMA) 46 days after treatment with various herbicides with standard formulation in comparison with compound of Formula (IV) at specified rates are provided in Table 6 below. The data was the result of conducting factorial replicated field trials (4 trials) by applying the compositions at a spray pressure of 300 kPa and a spray volume of 200 L/ha. The treated plots and control plots were visually rated blind at the specified dates after application. Ratings were based on a scale of 0-100%, as discussed above, wherein 0% indicates complete growth of the undesired vegetation and 100% indicates complete prevention/eradication of the undesired vegetation.

[2] = test system: ROUNDUP READY soybeans (GLXMA); assay: Field evaluation with various herbicides, 30 days after treatment; conditions: 30 Days After Treatment
Text: as §1, with “The” for “The average percent visual control of ROUNDUP READY® soybeans (GLXMA) 46 days after treatment with various herbicides with standard formulation in comparison with compound of Formula (IV) at specified rates are provided in Table 6 below. The”, “(3” for “(4”

[3] = test system: Resnick GLXMA (conventional soybean); assay: Greenhouse evaluation of broadleaf volunteer crop control, Resnick soybean; conditions: 2 to 3 leaf stage, after 21 days, 0 no injury, 100 complete kill
Procedure: (§2) Test plants were grown in METRO-MIX® 360 (SunGro Horticulture, Bellevue, Wash.) in 132.7 square centimeters (cm^2) plastic pots for 7-21 days in a greenhouse with an approximate 15 hour (h) photoperiod which was maintained at about 23-29° C. during the day and 22-28° C. during the night. Plants were grown to the 2 to 3 leaf stage prior to applications. Both conventional soybean crops varieties, Maverick and Resnick, and herbicide resistant (HT) varieties AAD12, AAD1, and ROUNDUP® ready soybean crops were treated.
(§3) A weighed amount, determined by the highest rate to be tested, of each test compound was placed in a 25 milliliter (mL) glass vial and was dissolved in 4 mL of a 97:3 v/v (volume/volume) mixture of acetone and dimethyl sulfoxide (DMSO), which will be referred to as General Purpose Solvent (GPS), to obtain concentrated stock solutions. […] The concentrated stock solutions obtained were diluted with 20 mL of an aqueous mixture containing water, GPS, isopropyl alcohol, ATPLUS® 411F crop oil concentrate, and TRITON® X-155 surfactant in a 46:42:12:1.0:0.02 v/v ratio to obtain spray solutions containing the highest application rates. Additional application rates were obtained by serial dilution of 12 mL of the high rate solution into a solution containing 2 mL of 97:3 v/v (volume/volume) mixture of acetone and dimethyl sulfoxide (DMSO) and 10 mL of an aqueous mixture containing water, GPS, isopropyl alcohol, ATPLUS® 411F crop oil concentrate, and TRITON® X-155 surfactant in a 46:42:12:1.0:0.02 v/v ratio to obtain 1/2X, 1/4X, 1/8X and 1/16X rates of the high rate (X). Compound requirements are based upon a 12 mL application volume at a rate of 187 L/ha. Formulated compounds were applied to the plant material with an overhead Mandel track sprayer equipped with 8002E nozzles calibrated to deliver 187 L/ha over an application area of 0.503 square meters (m^2) at a spray height of 18 inches (43 cm) above the average plant canopy height. Control plants were sprayed in the same manner with the solvent blank. The treated plants and control plants were placed in a greenhouse as described above and watered by sub-irrigation to prevent wash-off of the test compounds. After 21 days, the condition of the test plants as compared with that of the control plants was determined visually and scored on a scale of 0 to 100 percent where 0 corresponds to no injury and 100 corresponds to complete kill, and results are listed in Table 1 along with active ingredients and their respective formulations. Each score in Table 1 represents an average obtained from results of three representative experiments.

[4] = test system: RoundUp Ready GLXMA (HT variety soybean); assay: Greenhouse evaluation of broadleaf volunteer crop control, RoundUp ready soybean; conditions: Glycine max, 504 h, greenhouse, 2 to 3 leaf stage, after 21 days, 0 no injury, 100 complete kill, read-out: Average Percent Crop Control after Treatment, RoundUp Ready GLXMA
Procedure: as §2, §3
(§4) Additional formulations with different 6-arylpicolinates were tested in the greenhouse on Maverick and RoundUp-ready soybean crops using the procedure described above. Each score in Table 2 represents an average obtained from results of three representative experiments.

[5] = test system: AAD1 GLXMA (HT variety soybean); assay: Greenhouse evaluation of broadleaf volunteer crop control, AAD1 soybean; conditions: 2 to 3 leaf stage, after 21 days, 0 no injury, 100 complete kill
Procedure: as §2, §3

[6] = test system: AAD12 GLXMA (HT variety soybean); assay: Greenhouse evaluation of broadleaf volunteer crop control, AAD12 soybean; conditions: 2 to 3 leaf stage, after 21 days, 0 no injury, 100 complete kill
Procedure: as §2, §3

[7] = test system: Maverick GLXMA (conventional soybean); assay: Greenhouse evaluation of broadleaf volunteer crop control, Maverick soybean; conditions: Glycine max, 504 h, read-out: Average Percent Crop Control after Treatment, Maverick GLXMA
Procedure: as §2, §3, §4

Compound | Average Percent Crop Control after Treatment, Resnick GLXMA ([3]; 1.1 g ae/ha) [%] | Average Percent Crop Control after Treatment, Resnick GLXMA ([3]; 2.2 g ae/ha) [%] | Average Percent Crop Control after Treatment, Resnick GLXMA ([3]; 4.4 g ae/ha) [%] | Average Percent Crop Control after Treatment, Resnick GLXMA ([3]; 8.75 g ae/ha) [%] | Average Percent Crop Control after Treatment, Resnick GLXMA ([3]; 17.5 g ae/ha) [%] | Average Percent Crop Control after Treatment, AAD1 GLXMA ([5]; 2.2 g ae/ha) [%] | Average Percent Crop Control after Treatment, AAD1 GLXMA ([5]; 4.4 g ae/ha) [%] | Average Percent Crop Control after Treatment, AAD1 GLXMA ([5]; 8.75 g ae/ha) [%] | Average Percent Crop Control after Treatment, AAD1 GLXMA ([5]; 17.5 g ae/ha) [%] | Average Percent Crop Control after Treatment, AAD12 GLXMA ([6]; 1.1 g ae/ha) [%] | Average Percent Crop Control after Treatment, AAD12 GLXMA ([6]; 2.2 g ae/ha) [%] | Average Percent Crop Control after Treatment, AAD12 GLXMA ([6]; 4.4 g ae/ha) [%] | Average Percent Crop Control after Treatment, AAD12 GLXMA ([6]; 8.75 g ae/ha) [%] | Average Percent Crop Control after Treatment, AAD12 GLXMA ([6]; 17.5 g ae/ha) [%] | further results
COc1nc(C)nc(NC(=O)NS(=O)(=O)c2cc(I)ccc2C(=O)O)n1 [Iodosulfuron] | – | – | – | – | – | – | – | – | – | – | – | – | – | – | % Crop Control ([1]; 3.5 g ai/Ha): 90%
COc1nc(C)nc(=NC(=O)NS(=O)(=O)c2ccccc2C(=O)O)[nH]1 [Metsulfuron] | – | – | – | – | – | – | – | – | – | – | – | – | – | – | % Crop Control ([2]; 6 g ai/Ha + 1% J'Oil): 96%; % Crop Control ([2]; 6 g ai/Ha): 89.3%; % Crop Control ([1]; 6 g ai/Ha): 98.3%
C[n+]1ccc(-c2cc[n+](C)cc2)cc1 [Paraquat] | – | – | – | – | – | – | – | – | – | – | – | – | – | – | % Crop Control ([2]; 300 g ai/Ha): 61.7%; % Crop Control ([1]; 300 g ai/Ha): 85%
COc1cc(OC)n2nc(NS(=O)(=O)c3c(C(F)(F)F)ccnc3OC)nc2n1 [Pyroxsulam] | – | – | – | – | – | – | – | – | – | – | – | – | – | – | % Crop Control ([1]; 18 g ai/Ha): 98.3%
COc1c(Cl)ccc(-c2nc(C(=O)O)c(Cl)c(N)c2F)c1F [drawing 11] | 83 | 92 | 100 | 100 | 100 | 87 | 100 | 100 | 100 | 85 | 93 | 100 | 100 | 100 | pest or weed control at 2.2 g/ha ([4]; 2.2 g ae/ha): 83%; pest or weed control at 4.4 g/ha ([4]; 4.4 g ae/ha): 93%; pest or weed control at 8.75 g/ha ([4]; 8.75 g ae/ha): 100%; pest or weed control at 17.5 g/ha ([4]; 17.5 g ae/ha): 100%; pest or weed control at 1.1 g/ha ([7]; 1.1 g ae/ha, greenhouse, 2 to 3 leaf stage, after 21 days, 0 no injury, 100 complete kill): 87%; pest or weed control at 2.2 g/ha ([7]; 2.2 g ae/ha, greenhouse, 2 to 3 leaf stage, after 21 days, 0 no injury, 100 complete kill): 95%; pest or weed control at 4.4 g/ha ([7]; 4.4 g ae/ha, greenhouse, 2 to 3 leaf stage, after 21 days, 0 no injury, 100 complete kill): 100%; pest or weed control at 8.75 g/ha ([7]; 8.75 g ae/ha, greenhouse, 2 to 3 leaf stage, after 21 days, 0 no injury, 100 complete kill): 100%; pest or weed control at 17.5 g/ha ([7]; 17.5 g ae/ha, greenhouse, 2 to 3 leaf stage, after 21 days, 0 no injury, 100 complete kill): 100%
COc1c(Cl)ccc(-c2cc(N)c(Cl)c(C(=O)[O-])n2)c1F.[K+] [drawing 12] | 99 | 100 | 100 | 100 | 100 | 100 | 100 | 100 | 100 | 100 | 100 | 100 | 100 | 100 | Average Percent Crop Control after Treatment, AAD1 GLXMA ([5]; 1.1 g ae/ha): 100%; pest or weed control at 1.1 g/ha [7]: 97%
